Type: binding

HPNFSKYILHQR
selectivity for DNT over TNT target: selective for the DNT target
